The source of these data is patent publication US20250361281A1, “AMYLIN RECEPTOR (hAMY3R) AGONISTS WITH IMPROVED CHEMICAL STABILITY” (GUBRA A/S, priority 2022, published 2025).

Starred links: 1 amine or outer side, 2 acyl side, 3 side chain; linkers in the order of their positions; H or OH if unused. Positions of bridges follow the written chain, without caps; N, C: chain ends. Non-standard residues stand in square brackets, D forms with d. Residues, ends and D or L forms follow the SMILES beside them. *: point of attachment. C20 diacid = O=C(O)CCCCCCCCCCCCCCCCCCC(=O)*; γGlu = O=C(O)[C@H](CCC(=O)[*:2])N[*:1]; Hyp = O=C(O)[C@@H]1C[C@@H](O)CN1; CH2 = C([*:1])[*:2]

The target of one series is T1, hAM1 receptor (Homo sapiens, UniProt O60895+Q16602).
T1 construct: monoclonal sub-clone
T1 sequence (Q16602 23-461): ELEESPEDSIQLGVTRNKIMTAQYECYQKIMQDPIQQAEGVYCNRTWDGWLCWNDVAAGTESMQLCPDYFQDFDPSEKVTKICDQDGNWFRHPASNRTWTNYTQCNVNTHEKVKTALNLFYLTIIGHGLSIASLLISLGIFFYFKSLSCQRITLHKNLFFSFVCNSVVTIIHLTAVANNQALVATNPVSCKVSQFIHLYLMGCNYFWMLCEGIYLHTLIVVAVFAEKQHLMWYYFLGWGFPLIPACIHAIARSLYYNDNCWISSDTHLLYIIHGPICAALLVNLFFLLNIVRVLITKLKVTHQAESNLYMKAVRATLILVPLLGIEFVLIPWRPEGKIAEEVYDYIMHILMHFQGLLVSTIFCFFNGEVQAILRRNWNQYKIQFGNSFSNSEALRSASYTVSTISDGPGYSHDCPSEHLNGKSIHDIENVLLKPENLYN
T1 sequence (O60895 43-175 partner): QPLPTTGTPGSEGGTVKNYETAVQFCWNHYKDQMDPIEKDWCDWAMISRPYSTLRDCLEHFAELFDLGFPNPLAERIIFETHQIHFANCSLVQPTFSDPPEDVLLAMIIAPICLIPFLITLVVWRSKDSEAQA
The experiment in a line: cAMP assay for in vitro receptor activation, hAM1-R. The class given is cell-based. The settings on record: cells stably overexpressing hAM1 receptor, cAMP accumulation, 30 min stimulation; read-out: hAM1R EC50. As to the method:
General Protocols for cAMP Assays for Measuring In Vitro Receptor Activation hAMY3-R:
Cells stably overexpressing the hAM1 receptor were obtained from Ogeda (now Astellas Pharma), sub-cloned and a monoclonal cell-line with an appropriate assay-window was expanded, aliquoted and frozen. An aliquot was thawed and plated in DPBS with 0.05% casein and 0.5 mM IBMX as 8000 cells/well in a 384-well format.

Series [1] is described as follows: Physical stability of peptide analogues (Thioflavin T fibrillation). The settings on record: ThT fluorescence, 40° C., shaking, four days; pH 4 or pH 7 buffer. It counts as physicochemical. As to the method:
General Protocols for Determination of Physical Stability of Peptide Analogues
Peptides were dissolved in buffers (50 mM sodium acetate at pH 4 or 50 mM sodium phosphate at pH 7) and incubated for one hour. The samples were then divided into two replicates of 80 μl in a black 384 well plate (μ-clear, Greiner Bio-One) and mixed with Thioflavin T (ThT) to a final concentration of 4 μM. The plate was sealed and placed in a plate reader (CLARIOstar, BMG) where the temperature was set at 40° C. during the course of the experiment. The samples were further stressed by shaking the plate at 700 rpm (linear) for five minutes before every measurement. The fluorescence was measured every 10 min for four days by exciting the ThT at 450 nm and measuring the emission at 480 nm. For each peptide, the ThT signal over time was smoothened using Local Polynomial Regression fitting (LOESS) as implemented in the statistical programming environment R. For the smoothened data, the maximum ThT signal was normalized in percent between the maximum ThT signal for hAMY and the buffer background.

Series [2] is described as follows: Determination of deamidation and isomerization (LC-MS). It counts as physicochemical. To be noted: 50 mM phosphate buffer pH 7, 40° C., up to 28 days. The procedure:
General Protocol for Determination of Deamidation and Isomerization
Peptides were dissolved in 50 mM phosphate buffer (pH 7) and incubated at 40° C. for up to 28 days. The samples were then analysed on a Exploris120 mass spectrometer coupled to a Vanquish Tandem UPLC (both Thermo Fisher) equipped with an Acquity BEH C18 column (1.7 um, 2.1×50 mm, 130A, Waters). Peptides were eluted using a linear gradient starting at 5% over 7.5 min to 70% buffer B at a flow rate of 0.4 mL/min (buffer B=100% acetonitrile with 0.1% formic acid; buffer A=100% water with 0.1% formic acid). Data were acquired in data-dependent acquisition mode at a MS1 resolution of 60.000, and a MS2 resolution of 30.000 in positive mode (Top4). Peptides were fragmented with a normalized collision energy of 25%. Deamidation and isomerization were quantified using area under the curve integration.

A short description of series [3]: Determination of dimer and HMWP formation (size exclusion chromatography). The class given is physicochemical. The settings on record: 50 mM phosphate buffer pH 7, 40° C., up to 28 days. The procedure:
General Protocol for Determination of Dimer and HMWP Formation
Peptides were dissolved in 50 mM phosphate buffer (pH 7) and incubated at 40° C. for up to 28 days. The samples were then analysed using size exclusion chromatography analysis to quantify the amount of High Molecular Weight Products (HMWP), which is an overall term for covalently linked peptide dimers, trimers, and higher order multimers. Analyses were carried out on a Dionex Ultimate 3000 RS UHPLC Focused chromatography system (Thermo Scientific) equipped with a Acquity Protein BEH SEC 1.7 μm 4.6×300 mm 125 Å column (Waters part no 186006506). The solvent system consisted of two mobile phases that are assumed to break all non-covalent interactions between peptides leaving only monomeric peptide and covalent HMWP to be analysed. • Mobile phase A (all v/v %): 95% H2O, 5% MeCN (Acetonitrile), 0.1% TFA (Trifluoroacetic acid) • Mobile phase B (all v/v %): 95% MeCN, 5% H2O, 0.1% TFA
The typically load was 1 μl of 1.0 mg/ml, and the detection signal at 215 nm should optimally be between 0.1 and 1.5 abs units. Isocratic elution was done with 60% mobile phase B and a flow of 0.3 ml/min in 20 minutes. Chromatograms were integrated as HMWP (all peaks in front of the main peak) The amount of the various species was reported as area relative to total area in percentage.

Take `CC[C@H](C)[C@H](NC(=O)[C@H](CCC(N)=O)NC(=O)[C@H](CCC(=O)O)NC(=O)[C@H](C)NC(=O)[C@H](CC(C)C)NC(=O)[C@H](CCCNC(=N)N)NC(=O)[C@H](C)NC(=O)[C@@H](NC(=O)[C@@H](NC(=O)[C@@H]1CSCSC[C@H](NC(=O)[C@H](CCCCN)NC(=O)CC[C@H](NC(=O)CCCCCCCCCCCCCCCCCCC(=O)O)C(=O)O)C(=O)N[C@@H](CC(C)C)C(=O)N[C@@H]([C@@H](C)O)C(=O)N[C@@H](C)C(=O)N[C@@H]([C@@H](C)O)C(=O)N1)[C@@H](C)O)C(C)C)C(=O)N[C@@H](C)C(=O)N[C@@H](CCC(N)=O)C(=O)N[C@@H](Cc1ccccc1)C(=O)N[C@H](C(=O)N[C@@H](CC(=O)O)C(=O)N[C@@H](CCCCN)C(=O)N[C@@H](CC(=O)O)C(=O)N[C@@H](CCCCN)C(=O)N[C@@H](CCC(=O)O)C(=O)N[C@@H](CC(N)=O)C(=O)N[C@H](C(=O)N[C@@H](C)C(=O)N1CCC[C@H]1C(=O)N1CCC[C@H]1C(=O)N[C@H](C(=O)N[C@@H](C)C(=O)N[C@H](C(=O)NCC(=O)N[C@@H](CO)C(=O)N[C@@H](C)C(=O)NCC(=O)N1C[C@H](O)C[C@H]1C(N)=O)C(C)C)[C@@H](C)O)C(C)C)[C@@H](C)O` [SEQ ID NO: 4] ({C20 diacid-γGlu}-KCLTATCTVARLAEQIAQFTDKDKENVAPPTAVGSAG[Hyp]-NH2; linker 2-7 via CH2): at hAM1 receptor, the 50% effective concentration (EC50) is over 5 µM. Besides, the Fibril formation result in series [1] is listed as “No”. In series [2], this compound yielded a Deamidation of under 5% and an Isomerization of 1.2%. The same compound came in with a Deamidation in series [2] (listed as 4) of under 5%. Also, the “Dimerization and HMWP formation” value in series [3] worked out at 2%.
